In brackets after ≈: the same amount, converted by molar mass.
Tests used:
Type in all cases: functional
[1] = system: Bacillus subtilis; assay: Antimicrobial activity against Bacillus subtilis after overnight incubation by broth dilution method
[2] = system: Escherichia coli; assay: Antimicrobial activity against Escherichia coli after overnight incubation by broth dilution method
[3] = system: Staphylococcus aureus; assay: Antimicrobial activity against Staphylococcus aureus at 200 ug/ml after 48 hr by cup-plate method; details: read-out: IZ
[4] = system: Pseudomonas aeruginosa; assay: Antimicrobial activity against Pseudomonas aeruginosa at 200 ug/ml after 48 hr by cup-plate method; details: read-out: IZ
[5] = system: Pseudomonas aeruginosa; assay: Antimicrobial activity against Pseudomonas aeruginosa after overnight incubation by broth dilution method
[6] = system: Bacillus subtilis; assay: Antimicrobial activity against Bacillus subtilis at 200 ug/ml after 48 hr by cup-plate method; details: read-out: IZ
[7] = system: Staphylococcus aureus; assay: Antimicrobial activity against Staphylococcus aureus after overnight incubation by broth dilution method
[8] = system: Escherichia coli; assay: Antimicrobial activity against Escherichia coli at 200 ug/ml after 48 hr by cup-plate method; details: read-out: IZ

Row | Structure (SMILES) | MIC [1] [µg/mL] | MIC [2] [µg/mL] | zone of inhibition at 200 µg/mL [3] [mm] | zone of inhibition at 200 µg/mL [4] [mm] | MIC [5] [µg/mL] | zone of inhibition at 200 µg/mL [6] [mm] | MIC [7] [µg/mL] | zone of inhibition at 200 µg/mL [8] [mm]
1 | COc1ccc(-c2sc([S-])n[n+]2C(=O)c2ccc(-n3c(-c4ccccc4)nc4ccccc4c3=O)cc2)cc1[N+](=O)[O-] | 32 (≈ 53.9 µM) | 32 (≈ 53.9 µM) | 19 | 27 | 2 (≈ 3.37 µM) | 16 | 16 (≈ 27 µM) | 15
2 | O=C(c1ccc(-n2c(-c3ccccc3)nc3ccccc3c2=O)cc1)[n+]1nc([S-])sc1-c1cc([N+](=O)[O-])ccc1Cl | 16 (≈ 26.8 µM) | 16 (≈ 26.8 µM) | 26 | 22 | 8 (≈ 13.4 µM) | 18 | 2 (≈ 3.34 µM) | 19
3 | O=C(c1ccc(Nc2nc(-c3ccccc3)nc3ccccc23)cc1)[n+]1nc([S-])sc1-c1cc([N+](=O)[O-])ccc1Cl | 8 (≈ 13.4 µM) | 4 (≈ 6.7 µM) | 23 | 26 | 2 (≈ 3.35 µM) | 22 | 4 (≈ 6.7 µM) | 24
4 | O=C(c1ccc(Nc2nc(-c3ccccc3)nc3ccccc23)cc1)[n+]1nc([S-])sc1-c1ccc(Cl)c([N+](=O)[O-])c1 | 16 (≈ 26.8 µM) | 32 (≈ 53.6 µM) | 20 | 22 | 8 (≈ 13.4 µM) | 19 | 8 (≈ 13.4 µM) | 15
5 | O=C(c1ccc(-n2c(-c3ccccc3)nc3ccccc3c2=O)cc1)[n+]1nc([S-])sc1-c1cccc([N+](=O)[O-])c1 | 64 (≈ 114 µM) | 64 (≈ 114 µM) | 11 | 10 |  | 15 | 64 (≈ 114 µM) | 13
6 | O=C(c1ccc(-n2c(-c3ccccc3)nc3ccccc3c2=O)cc1)[n+]1nc([S-])sc1-c1ccc(Cl)cc1 | 8 (≈ 14.5 µM) | 16 (≈ 28.9 µM) | 22 | 21 | 8 (≈ 14.5 µM) | 20 | 8 (≈ 14.5 µM) | 16
7 | O=C(c1ccc(-n2c(-c3ccccc3)nc3ccccc3c2=O)cc1)[n+]1nc([S-])sc1-c1ccc(Cl)c([N+](=O)[O-])c1 | 64 (≈ 107 µM) | 8 (≈ 13.4 µM) | 20 | 24 | 4 (≈ 6.69 µM) | 14 | 8 (≈ 13.4 µM) | 22
8 | O=C(O)c1cn(C2CC2)c2cc(N3CCNCC3)c(F)cc2c1=O [CIPROFLOXACIN] | 0.5 (≈ 1.51 µM) |  | 31 | 41 |  | 35 | 1 (≈ 3.02 µM) | 38
9 | O=C(c1ccc(Nc2nc(-c3ccccc3)nc3ccccc23)cc1)[n+]1nc([S-])sc1-c1ccccc1 | 16 (≈ 30.9 µM) | 8 (≈ 15.5 µM) | 19 | 24 | 4 (≈ 7.73 µM) | 18 | 16 (≈ 30.9 µM) | 20
10 | O=C(c1ccc(-n2c(-c3ccccc3)nc3ccccc3c2=O)cc1)[n+]1nc([S-])sc1-c1ccc([N+](=O)[O-])cc1 | 4 (≈ 7.1 µM) | 4 (≈ 7.1 µM) | 20 | 22 | 8 (≈ 14.2 µM) | 24 | 8 (≈ 14.2 µM) | 23
11 | O=C(c1ccc(-n2c(-c3ccccc3)nc3ccccc3c2=O)cc1)[n+]1nc([S-])sc1-c1ccccc1 | 2 (≈ 3.86 µM) | 2 (≈ 3.86 µM) | 24 | 22 | 8 (≈ 15.4 µM) | 25 | 4 (≈ 7.71 µM) | 28
12 | Cc1sc([S-])n[n+]1C(=O)c1ccc(-n2c(-c3ccccc3)nc3ccccc3c2=O)cc1 | 8 (≈ 17.5 µM) | 32 (≈ 70.1 µM) | 28 | 18 | 16 (≈ 35 µM) | 22 | 1 (≈ 2.19 µM) | 17
13 | O=C(c1ccc(Nc2nc(-c3ccccc3)nc3ccccc23)cc1)[n+]1nc([S-])sc1-c1cccc([N+](=O)[O-])c1 | 32 (≈ 56.9 µM) | 16 (≈ 28.4 µM) | 21 | 22 | 8 (≈ 14.2 µM) | 16 | 8 (≈ 14.2 µM) | 20
14 | COc1ccc(-c2sc([S-])n[n+]2C(=O)c2ccc(Nc3nc(-c4ccccc4)nc4ccccc34)cc2)cc1[N+](=O)[O-] | 4 (≈ 6.75 µM) | 4 (≈ 6.75 µM) | 22 | 22 | 8 (≈ 13.5 µM) | 24 | 8 (≈ 13.5 µM) | 23
15 | Cc1sc([S-])n[n+]1C(=O)c1ccc(Nc2nc(-c3ccccc3)nc3ccccc23)cc1 | 8 (≈ 17.6 µM) | 8 (≈ 17.6 µM) | 19 | 23 | 4 (≈ 8.78 µM) | 21 | 16 (≈ 35.1 µM) | 20
16 | O=C(c1ccc(Nc2nc(-c3ccccc3)nc3ccccc23)cc1)[n+]1nc([S-])sc1-c1ccc([N+](=O)[O-])cc1 | 16 (≈ 28.4 µM) | 16 (≈ 28.4 µM) | 16 | 15 | 32 (≈ 56.9 µM) | 19 | 32 (≈ 56.9 µM) | 18
17 | O=C(c1ccc(Nc2nc(-c3ccccc3)nc3ccccc23)cc1)[n+]1nc([S-])sc1-c1ccc(Cl)cc1 | 8 (≈ 14.5 µM) | 8 (≈ 14.5 µM) | 19 | 24 | 4 (≈ 7.25 µM) | 21 | 16 (≈ 29 µM) | 22

— ChEMBL document CHEMBL3044680, “Synthesis, characterization, and antimicrobial studies of novel 1,3,4-thiadiazolium-5-thiolates” (2012)
